Read-outs that look alike come from different tables or passages of the source.

Data on six compounds can be found in publication PMC4414309, “Target Modulation by a Kinase Inhibitor Engineered to Induce a Tandem Blockade of the Epidermal Growth Factor Receptor (EGFR) and c-Src: The Concept of Type III Combi-Targeting” (PLoS ONE, 2015).

In data set [1] the test system is 4T1 cells. Description: Boyden chamber invasion assay, 4T1. Format: cell-based, mouse. The note with it: for Effect on invasion: 4T1, concentration as low as 0.1 μM, 24h. The protocol: (§1) The invasive property of MDA-MB-231 and 4T1 cells was determined using the Boyden-chamber invasion assay. Cells suspended in serum-free media were plated (120–150,000 cells/well) onto polycarbonate transwell inserts (8 μm pore size, BD Biosciences) coated with matrigel (6%) (BD Biosciences), separating the top and bottom chambers (50 μl/filter). […] The invasive property of cells was observed 24h after treatment by fixing cells in formalin and staining with 0.1% crystal violet (Sigma-Aldrich Canada Ltd). Cells attached on the upper surface of the insert (top chamber) were removed by gently scraping away with a cotton swab, whereas those that invaded onto the lower side of the insert were observed using a microscope (Leica DM IL inverted microscope, 10X). Images of five non-overlapping fields of invading cells were captured using the Leica DFC300FX camera and quantification was done using the Scion Image Analysis (3.53.0.0) software and ImageJ 1.46r software. The results were expressed in terms of percentage of invading cells relative to control and the bar graphs represent the average of three independent experiments.

Data set [2] is described as follows: LC-MS analysis of AL776 hydrolysis in plasma in vivo. Details: species or system CD-1 mice. The note with it: AL776 80 mg/kg i.v., after 30 min. The protocol:
CD-1 mice were divided into groups of three and treated with 80 mg/kg of AL776, injected intraperitoneally (i.p) or intravenously (i.v). Mice were sacrificed and their plasma was collected for further analysis after 0, 5, 15 and 30 min after drug treatment. Plasma samples were extracted using twice the volume of methanol and lysed at 13,000 rpm for 30 min at 4°C. The resulting supernatant from each sample was collected, filtered and evaporated to dryness before reconstituting in 100 μL of methanol. LC-MS analyses were performed on a Synapt G2-S instrument coupled with an Acquity UPLC Class I system both from Waters. Elution rate was set at 500 μL/min using an Eclipse XDB C8, 3.5 um, 2.1 x 100 mm chromatographic column from Agilent Technologies. The experiments were performed with the following eluents: 0.1% aqueous formic acid (eluent A) and methanol (eluent B). The initial mobile phase was 30% B, which was maintained for 0.2 min at the beginning of the run. The following gradient elution was subsequently applied: 30 to 50% B from 0.2 to 4 min; 50 to 80% B from 4 to 10 min; held at 80% B from 10 to 11 min. Thereafter, eluent B was decreased to 30% in 0.2 min and held constant for up to 15 min to allow the column to equilibrate. Each sample was diluted with methanol in order to avoid detector saturation and […] aliquots of the resulting solutions were injected. Analyses were performed with the electrospray interface in positive ion mode and mass spectra acquired from m/z 100 to 1200. For accurate mass determination, Leucine Enkephalin was used as lock mass. The MassLynx software was used for instrument control, data acquisition and data processing.

The subject of data set [3] is MDA-MB-231 cells. The experiment in a line: Growth inhibition, SRB assay, MDA-MB-231. Conditions: Homo sapiens, MDA-MB-231, 120 h, read-out: IC50 growth inhibition MDA-MB-231. (The SRB assay estimates cell density from bound dye.)
Description: (§3) Growth inhibition was measured in cells using the sulforhodamine B (SRB) assay [48]. […] The plates were subsequently rinsed with 1% acetic acid, and allowed to dry overnight. […] The results were analyzed using GraphPad Prism 6.0 (GraphPadSoftware, Inc., San Diego, CA) and the sigmoidal dose response curve was used to determine IC50 values. Each experiment was carried out at least four times, in triplicate.
Data set [4] deals with NIH3T3 wild type cells. The experiment in a line: Growth inhibition, sulforhodamine B (SRB) assay, NIH3T3 wild type. Conditions: Mus musculus, NIH3T3, 120 h, read-out: IC50 growth inhibition NIH3T3 – Wt.
Description: as §3
The test system of data set [5] is 4T1 cells. Description: Growth inhibition, SRB assay, 4T1. Conditions: Mus musculus, 4T1, 120 h, read-out: IC50 growth inhibition 4T1.
Description: as §3
Data set [6] concerns MDA-MB-231 cells. Description: Boyden chamber invasion assay, MDA-MB-231. The data set is classed as cell-based, human. Conditions: for Effect on invasion: MDA-MB-231, concentration as low as 0.1 μM, 24h. The protocol: as §1
Data set [7] concerns the target T1, c-Src (Homo sapiens, UniProt P12931).
T1 construct: purchased Enzo Life Sciences Inc, NY, USA; Signal Chem, Richmond, Canada
The experiment in a line: In vitro kinase assay, c-Src. The data set is classed as biochemical. The note with it: ATP 50 μM, read-out: IC50 c-Src kinase inhibition. The protocol: (§2) The EGFR and c-Src kinase assays were performed in 96-well plates (NuncMaxisorp) coated with PGT (poly L-glutamic acid L-tyrosine, 4:1, Sigma Aldrich, MO, USA) and incubated at 37°C for 48h prior to using. PGT served as the substrate to be phosphorylated by EGFR (Enzo Life Sciences Inc, NY, USA, Signal Chem, Richmond, Canada) and c-Src (Enzo Life Sciences Inc, NY, USA, Signal Chem, Richmond, Canada) in the presence of ATP (50 μM). […] To each well, 15 ng of EGFR (20 μg/ml) or 6 ng of c-Src (0.1 μg/μl) were added. The phosphorylated substrate was detected using an HRP-conjugated anti-phosphotyrosine antibody (Santa Cruz Biotechnology, CA). The signal was developed by the addition of 3, 3’, 5, 5’-tetramethylbenzidine peroxidase substrate (Kierkegaard and Perry Laboratories, Gaithersburg, MD) and the colorimetric reaction was monitored at 450 nm using a microplate reader ELx808 (BioTek Instruments). The IC50 values were calculated using GraphPad Prism 6.0 (GraphPadSoftware, Inc., San Diego, CA). Each experiment was carried out at least three times, in duplicate.

Data set [8] addresses T2, EGFR (Homo sapiens, UniProt P00533).
T2 construct: purchased Enzo Life Sciences Inc, NY, USA; Signal Chem, Richmond, Canada
Description: In vitro kinase assay, EGFR. The note with it: ATP 50 μM, average of three independent experiments in duplicate, read-out: IC50 EGFR kinase inhibition. Format: biochemical. The protocol: as §2

In data set [9] the target is T2, EGFR. Description: Published EGFR kinase inhibition of AL621. Format: biochemical. Conditions: published IC50 of AL621 compared with AL776.
Data set [10] addresses T2, EGFR. Further details: method as in PMID 22943437. Conditions: read-out: IC50 EGFR kinase inhibition (published); cited from earlier work.
Setting [11] is: average of three independent experiments in duplicate.

T2 sequence (P00533 25-1210): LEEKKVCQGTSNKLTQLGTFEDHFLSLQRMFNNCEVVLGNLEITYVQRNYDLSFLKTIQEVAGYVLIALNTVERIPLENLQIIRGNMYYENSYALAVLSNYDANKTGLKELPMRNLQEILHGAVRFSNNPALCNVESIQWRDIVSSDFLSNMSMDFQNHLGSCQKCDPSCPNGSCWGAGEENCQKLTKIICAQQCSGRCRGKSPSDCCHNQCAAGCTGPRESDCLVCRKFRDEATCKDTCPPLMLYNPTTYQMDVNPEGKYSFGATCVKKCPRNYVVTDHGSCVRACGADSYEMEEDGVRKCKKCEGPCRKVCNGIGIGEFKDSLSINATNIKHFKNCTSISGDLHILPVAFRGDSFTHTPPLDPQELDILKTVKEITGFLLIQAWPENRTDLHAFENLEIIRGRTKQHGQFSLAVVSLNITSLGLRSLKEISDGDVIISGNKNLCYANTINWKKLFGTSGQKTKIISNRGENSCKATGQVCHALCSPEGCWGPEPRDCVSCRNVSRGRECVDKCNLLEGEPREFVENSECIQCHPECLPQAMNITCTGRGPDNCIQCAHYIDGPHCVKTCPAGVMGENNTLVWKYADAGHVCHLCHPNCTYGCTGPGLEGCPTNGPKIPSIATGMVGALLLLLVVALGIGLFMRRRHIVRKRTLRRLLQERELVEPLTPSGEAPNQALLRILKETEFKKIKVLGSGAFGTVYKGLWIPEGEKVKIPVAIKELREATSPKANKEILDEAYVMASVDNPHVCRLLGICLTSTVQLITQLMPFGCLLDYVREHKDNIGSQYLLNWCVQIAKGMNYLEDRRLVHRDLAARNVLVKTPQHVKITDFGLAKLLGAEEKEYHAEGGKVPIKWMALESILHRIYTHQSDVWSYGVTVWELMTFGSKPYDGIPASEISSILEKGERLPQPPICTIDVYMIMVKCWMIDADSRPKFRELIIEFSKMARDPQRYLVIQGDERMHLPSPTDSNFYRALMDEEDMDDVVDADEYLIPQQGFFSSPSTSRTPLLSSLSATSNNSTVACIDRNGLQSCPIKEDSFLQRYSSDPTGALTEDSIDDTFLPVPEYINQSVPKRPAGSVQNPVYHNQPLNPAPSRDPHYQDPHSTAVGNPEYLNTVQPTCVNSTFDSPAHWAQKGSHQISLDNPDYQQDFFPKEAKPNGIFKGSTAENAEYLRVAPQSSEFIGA
T1 sequence (P12931 whole entry): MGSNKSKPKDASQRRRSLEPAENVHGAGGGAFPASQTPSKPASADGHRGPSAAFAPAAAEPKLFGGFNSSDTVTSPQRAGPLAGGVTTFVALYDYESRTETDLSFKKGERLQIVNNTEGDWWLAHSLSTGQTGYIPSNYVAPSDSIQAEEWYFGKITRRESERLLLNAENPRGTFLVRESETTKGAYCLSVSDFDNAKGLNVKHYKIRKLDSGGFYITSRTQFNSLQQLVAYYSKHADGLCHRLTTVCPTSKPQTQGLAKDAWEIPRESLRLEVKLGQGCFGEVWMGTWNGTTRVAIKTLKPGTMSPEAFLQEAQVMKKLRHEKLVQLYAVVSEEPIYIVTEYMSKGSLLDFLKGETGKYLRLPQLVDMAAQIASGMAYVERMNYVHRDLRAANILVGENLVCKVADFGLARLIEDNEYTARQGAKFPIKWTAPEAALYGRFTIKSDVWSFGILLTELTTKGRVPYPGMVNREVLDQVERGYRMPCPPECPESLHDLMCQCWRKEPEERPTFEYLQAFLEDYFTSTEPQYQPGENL

With `Cc1nc(Nc2ncc(C(=O)Nc3c(C)cccc3Cl)s2)cc(N2CCN(CCO)CC2)n1` [Dasatinib, dasatinib, reference compound], the Effect on invasion result in [1] and in data set [6] was “strongly inhibited invasion” throughout. The “Plasma level as metabolite of AL776” value in [2] is “abundant levels”. Further, the IC50 in data set [3] stood at 20 ± 10 nM; in [4], 16400 ± 5200 nM; in data set [5] it was 50 ± 20 nM.
Regarding `Cc1nc(Nc2ncc(C(=O)Nc3c(C)cccc3Cl)s2)cc(N2CCN(CCOC(=O)c3cnc(C(=O)Nc4ccc5ncnc(Nc6cccc(Cl)c6)c5c4)cn3)CC2)n1` [III], the IC50 was under 0.1 nM in data set [7] and 600 ± 200 nM in [8].
Regarding `Cc1nc(Nc2ncc(C(=O)Nc3c(C)cccc3Cl)s2)cc(N2CCN(CCOC(=O)OCCN3CCN(CCNc4ccc5ncnc(Nc6cccc(Br)c6)c5c4)CC3)CC2)n1` [VI], the values for the IC50 in [7] (setting [11]) and in data set [8] were 40 ± 10 nM and 1100 ± 300 nM, respectively.
As to `CN(CCO)Cc1ccc(C(=O)Nc2ccc3ncnc(Nc4cccc(Cl)c4)c3c2)cc1` [AL621], the “EGFR kinase potency relative to intact AL776” value in [9] is “ca. 40 fold”. Also, in data set [2], the “Plasma level as metabolite of AL776” value is “abundant levels”. The IC50 in [10] was 3 nM.
With `Cc1nc(Nc2ncc(C(=O)Nc3c(C)cccc3Cl)s2)cc(N2CCN(CCOC(=O)CCC(=O)Nc3ccc4ncnc(Nc5cccc(Cl)c5)c4c3)CC2)n1` [IV], the figures for the IC50 in [7] (setting [11]) and in data set [8] were 8 ± 3 nM and 400 ± 100 nM, respectively.
With `COc1cc2ncnc(Nc3ccc(F)c(Cl)c3)c2cc1OCCCN1CCOCC1` [Gefitinib, gefitinib], the “Anti-invasive effect weaker than dasatinib” value in [1] (4T1) and in data set [6] (MDA-MB-231) was 2-3 fold in each case. The Effect on invasion result in data set [1] and in data set [6] was “mostly unable to block invasion” each time.

By IC50 is commonly meant the concentration that inhibits the measured activity by half.
